The values that follow come from US8916540B2, “Antibiotic compositions and related screening methods” (Academia Sinica, priority 2008, dated 2014).

One experiment relates to Bordetella pertussis. Kind of experiment: Minimal inhibitory concentration (MIC) determination. In kind it is cell-based.
A further experiment has as its system Pseudomonas aeruginosa. Conditions: literature citation 28; cited from earlier work.
In a further experiment the test system is Enterococcus faecium. As to conditions: literature citation 10; cited from earlier work.
Experiment [1] has as its system Staphylococcus aureus. Conditions: literature citation 10; cited from earlier work.
A further experiment has as its system Salmonella enterica. The experiment is described as follows: Minimal inhibitory concentration (MIC) determination. In kind it is cell-based.
In the next experiment the test system is Enterococcus faecalis. The experiment is described as above. In kind it is cell-based. Here is the method:
(§1) The minimal inhibitory concentration (MIC) of tested compounds was determined following the NCCLS standard. The experiments were conducted in 96-well microtiter plates using two-fold dilutions in Muller-Hilton broth with (Streptococcus pneumonia) or without blood (Bacillus subtilis, Enterococcus faecalis, Staphylococcus aureus). Exponentially growing cells at 5×10^5 cells/ml were incubated with test compounds at various concentrations.

Experiment [2] has as its system Staphylococcus aureus. The experiment is described as above. In kind it is cell-based. The method, then:
as §1

In the next experiment the test system is Streptococcus pneumoniae. The description is as above. In kind it is cell-based. Here is the method:
as §1

A further experiment relates to Bacillus subtilis. The experiment is described as above. In kind it is cell-based. Here is the method: as §1
A further experiment relates to Shigella flexneri. The description is as above. In kind it is cell-based.
The test system of a further experiment is Klebsiella pneumoniae. The experiment is described as above. In kind it is cell-based.

Read-outs that look alike come from different tables or passages of the source. A value given as a limit tells only on which side of the number the result lay.

Turning to Moenomycin A [Compound 1], the MIC is 0.011 to 0.021 µM with Bordetella pertussis; 160 µM against Salmonella enterica; 0.04 µM in the experiment with Enterococcus faecalis (E. faecalis ATCC29212, Muller-Hilton broth, 18 h to 24 h, 37° C., read-out: MIC E. faecalis (ATCC29212)); 0.075 to 0.3 µM in the experiment on Enterococcus faecalis (Enterococcus faecalis (Table 1)); under 0.01 µM in the experiment on Staphylococcus aureus [2] (S. aureus ATCC29213, Muller-Hilton broth, 18 h to 24 h, 37° C., read-out: MIC S. aureus (ATCC29213)); 0.075 µM against Staphylococcus aureus [2] (Staphylococcus aureus (Table 1)). Further, the minimal inhibitory concentration (MIC) is 0.33 µM in the experiment on Streptococcus pneumoniae (S. pneumoniae ATCC49619, Muller-Hilton broth with blood, 18 h to 24 h, 37° C., read-out: MIC S. pneumoniae (ATCC49619)); 0.625 µM against Streptococcus pneumoniae (Streptococcus pneumoniae (Table 1)); 0.33 µM in the experiment on Bacillus subtilis (B. subtilis ATCC23857, Muller-Hilton broth, 18 h to 24 h, 37° C., read-out: MIC B. subtilis (ATCC23857)); 0.3 to 0.6 µM against Bacillus subtilis (Bacillus subtilis (Table 1)); 40 µM in the experiment on Shigella flexneri; 80 µM against Klebsiella pneumoniae. Moreover, the “Reported values MIC” value was 55 to 110 µM in the experiment on Pseudomonas aeruginosa, over 40.5 µM in the experiment on Enterococcus faecium and 0.02 to 0.12 µM with Staphylococcus aureus [1].

By MIC is commonly meant the lowest concentration found to suppress growth.
